This is an account of results in patent US20250163104A1, “MACROCYCLIC IMMUNOMODULATORS” (priority 2021, published 2025).

Where a SMILES comes first, the peptide text is derived from it. Bridges are numbered along the chain shown (N, C = ends). [ ]: non-standard residue; d: D form. The star is where a group is joined. ξ: configuration not given here. Phe(4-COOH) = N[C@@H](Cc1ccc(C(=O)O)cc1)C(=O)O; Bip = N[C@@H](Cc1ccc(-c2ccccc2)cc1)C(=O)O; Phe(3-F) = N[C@@H](Cc1cccc(F)c1)C(=O)O; Phe(3-Me) = Cc1cccc(C[C@H](N)C(=O)O)c1; Val(3-OH) = CC(C)(O)[C@H](N)C(=O)O; 4Pal = N[C@@H](Cc1ccncc1)C(=O)O; Cha = N[C@@H](CC1CCCCC1)C(=O)O; Cit = NC(=O)NCCC[C@H](N)C(=O)O; Ile(3ξ) = CCC(C)[C@H](N)C(=O)O; Thr(3ξ) = CC(O)[C@H](N)C(=O)O; Carboxymethyl = O=C(O)C*; Orn = NCCC[C@H](N)C(=O)O; Dab = NCC[C@H](N)C(=O)O; Dap = NC[C@H](N)C(=O)O; ξPra = C#CCC(N)C(=O)O

The assay concerns the target T1, human PD-1 / PD-L1-Ig binding on Jurkat cell line over-expressing human PD-1 (Jurkat-PD-1) (Homo sapiens, UniProt Q15116).
T1 construct: expressed in transfected cells; host or cells: Jurkat
Put plainly: Jurkat-PD-1 Cell Binding High-Content Screening Assay (CBA). Type of assay: cell-based. Particulars: Jurkat-PD-1 cells, PE-labeled PD-L1-Ig 20 nM final; read-out: Jurkat HPD1_PDL1 IC50. Put shortly: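 Jurkat-hPD-1 cells in DMEM with 10% fetal calf serum receive test compound and are held at 37° C for 2 h. PE-labeled PD-L1-Ig is added at 20 nM final and left for 1 hour. Cells are then fixed and Hoechst-stained, and binding is measured by imaging.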

T1 sequence (Q15116 25-288): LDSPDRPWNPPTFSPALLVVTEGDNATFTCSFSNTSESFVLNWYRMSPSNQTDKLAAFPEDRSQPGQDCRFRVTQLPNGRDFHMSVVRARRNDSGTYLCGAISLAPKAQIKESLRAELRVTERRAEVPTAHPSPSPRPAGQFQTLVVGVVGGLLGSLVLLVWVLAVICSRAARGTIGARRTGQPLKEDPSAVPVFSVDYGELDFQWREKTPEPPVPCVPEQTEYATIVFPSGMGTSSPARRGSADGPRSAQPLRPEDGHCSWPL

On to `CC(C)C[C@H]1NC(=O)[C@H](CCCN)NC(=O)[C@H](CCCNC(N)=O)NC(=O)[C@H](Cc2ccc(-c3ccccc3)cc2)NC(=O)[C@H](C(C)C)NC(=O)[C@H](Cc2c[nH]c3ccccc23)NC(=O)[C@H](CC(=O)O)NC(=O)[C@H](Cc2ccc(C(=O)O)cc2)NC(=O)[C@H](Cc2ccc(OCC(=O)O)cc2)NC(=O)CSC[C@@H](C(=O)N[C@@H](C)C(N)=O)NC(=O)[C@H]([C@@H](C)O)NC(=O)[C@H](C(C)C)NC(=O)[C@H](Cc2cccc(F)c2)NC(=O)[C@H](CCN)NC1=O` [Compound 1675] ({CH2CO}-Y(Carboxymethyl)[Phe(4-COOH)]DWV[Bip][Cit][Orn][dL][Dab][Phe(3-F)]VTCA-NH2; thioether N-14), for which the IC50 amounted to 0.0209 µM.
With `CC(C)C[C@@H]1NC(=O)[C@H](CCN)NC(=O)[C@@H](CC(C)C)NC(=O)[C@H](CCCN)NC(=O)[C@H](C(C)C)NC(=O)[C@H](Cc2ccc(-c3ccccc3)cc2)NC(=O)[C@H](C(C)C)NC(=O)[C@H](Cc2c[nH]c3ccccc23)NC(=O)[C@H](CC(=O)O)NC(=O)[C@H](Cc2ccc(O)cc2)NC(=O)[C@H](CC(N)=O)NC(=O)CSC[C@@H](C(=O)N[C@@H](C)C(N)=O)NC(=O)[C@H]([C@@H](C)O)NC(=O)[C@H](C(C)C)NC1=O` [Compound 1015] ({CH2CO}-NYDWV[Bip]V[Orn][dL][Dab]LVTCA-NH2; thioether N-14) the figure was 0.0238 µM; with `C#CCC(NC(=O)[C@H](Cc1cnc[nH]1)NC(=O)[C@@H]1CSCC(=O)N[C@@H](Cc2ccncc2)C(=O)N[C@@H](Cc2ccc(OCC(=O)O)cc2)C(=O)N[C@@H](CC(=O)O)C(=O)N[C@@H](Cc2c[nH]c3ccccc23)C(=O)N[C@@H](C(C)C)C(=O)N[C@@H](Cc2ccc(-c3ccccc3)cc2)C(=O)N[C@@H]([C@@H](C)CC)C(=O)N[C@@H](CCCN)C(=O)N[C@H](CC(C)C)C(=O)N[C@@H](CCN)C(=O)N[C@@H](CC(C)C)C(=O)N[C@@H](C(C)C)C(=O)N[C@@H]([C@@H](C)O)C(=O)N1)C(N)=O` (stereo partly drawn) [Compound 1763] ({CH2CO}-[4Pal]Y(Carboxymethyl)DWV[Bip]I[Orn][dL][Dab]LVTCH[ξPra]-NH2; thioether N-14), 0.024 µM; with `CC[C@H](C)[C@@H]1NC(=O)[C@H](Cc2ccc(-c3ccccc3)cc2)NC(=O)[C@H](C(C)C)NC(=O)[C@H](Cc2c[nH]c3ccccc23)NC(=O)[C@H](CC(=O)O)NC(=O)[C@H](Cc2ccc(C(=O)O)cc2)NC(=O)[C@H](Cc2ccc(OCC(=O)O)cc2)NC(=O)CSC[C@@H](C(=O)N[C@@H](C)C(N)=O)NC(=O)[C@H]([C@@H](C)O)NC(=O)[C@H](C(C)C)NC(=O)[C@H](Cc2cccc(F)c2)NC(=O)[C@H](CCN)NC(=O)[C@@H](CC(C)C)NC(=O)[C@H](CCCN)NC1=O` [Compound 1670], 0.0139 µM.
Then `CC(C)C[C@H]1NC(=O)[C@H](CCCN)NC(=O)[C@H](CCCNC(N)=O)NC(=O)[C@H](Cc2ccc(-c3ccccc3)cc2)NC(=O)[C@H](C(C)C)NC(=O)[C@H](Cc2c[nH]c3ccccc23)NC(=O)[C@H](CC(=O)O)NC(=O)[C@H](Cc2ccc(O)cc2)NC(=O)[C@H](CC(N)=O)NC(=O)CSC[C@@H](C(=O)N[C@@H](C)C(N)=O)NC(=O)[C@H]([C@@H](C)O)NC(=O)[C@H](C(C)C)NC(=O)[C@H](CC2CCCCC2)NC(=O)[C@H](CCCNC(=N)N)NC1=O` [Compound 1155] ({CH2CO}-NYDWV[Bip][Cit][Orn][dL]R[Cha]VTCA-NH2; thioether N-14), with 0.0077 µM; and `CCC(C)[C@@H]1NC(=O)[C@H](Cc2ccc(-c3ccccc3)cc2)NC(=O)[C@H](Cc2ccccc2)NC(=O)[C@H](Cc2c[nH]c3ccccc23)NC(=O)[C@H](CC(=O)O)NC(=O)[C@H](Cc2ccc(OCC(=O)O)cc2)NC(=O)[C@H](C(C)O)NC(=O)CSC[C@@H](C(=O)N[C@@H](CC(N)=O)C(=O)O)NC(=O)[C@H](CO)NC(=O)[C@H](C(C)C)NC(=O)[C@H](CC(C)C)NC(=O)[C@H](CCN)NC(=O)[C@@H](CC(C)C)NC(=O)[C@H](CCCN)NC1=O` (stereo partly drawn) [Compound 2574] ({CH2CO}-[Thr(3ξ)]Y(Carboxymethyl)DWF[Bip][Ile(3ξ)][Orn][dL][Dab]LVSCN-OH; thioether N-14), with 0.132 µM; and `COc1ccc(C[C@@H]2NC(=O)[C@H](CN)NC(=O)CSC[C@@H](C(=O)N[C@@H](C)C(N)=O)NC(=O)[C@H]([C@@H](C)O)NC(=O)[C@H](C(C)C)NC(=O)[C@H](CC3CCCCC3)NC(=O)[C@H](CCN)NC(=O)[C@@H](CC(C)C)NC(=O)[C@H](CCCN)NC(=O)[C@H](CCCNC(N)=O)NC(=O)[C@H](Cc3ccc(-c4ccccc4)cc3)NC(=O)[C@H](C(C)C)NC(=O)[C@H](Cc3c[nH]c4ccccc34)NC(=O)[C@H](CC(=O)O)NC2=O)cc1` [Compound 2112], with 0.018 µM.
On to `Cc1cccc(C[C@@H]2NC(=O)[C@H](CC(=O)O)NC(=O)[C@H](Cc3ccc(OCC(=O)O)cc3)NC(=O)[C@H](Cc3ccccc3)NC(=O)CSC[C@@H](C(=O)N[C@@H](C)C(N)=O)NC(=O)[C@H](C(C)O)NC(=O)[C@H](C(C)C)NC(=O)[C@H](CC3CCCCC3)NC(=O)[C@H](CN)NC(=O)[C@@H](CC(C)C)NC(=O)[C@H](CCCN)NC(=O)[C@H](CCCNC(N)=O)NC(=O)[C@H](Cc3ccc(-c4ccccc4)cc3)NC(=O)[C@H](C(C)C)NC2=O)c1` (stereo partly drawn) [Compound 2500] ({CH2CO}-FY(Carboxymethyl)D[Phe(3-Me)]V[Bip][Cit][Orn][dL][Dap][Cha]V[Thr(3ξ)]CA-NH2; thioether N-14), for which the IC50 was 0.01 µM.
With `Cc1cccc(C[C@@H]2NC(=O)[C@H](CC(=O)O)NC(=O)[C@H](Cc3ccc(OCC(=O)O)cc3)NC(=O)[C@H](CN)NC(=O)CSC[C@@H](C(N)=O)NC(=O)[C@H](CC(=O)O)NC(=O)[C@H](C(C)C)NC(=O)[C@H](CC3CCCCC3)NC(=O)[C@H](CCN)NC(=O)[C@@H](CC(C)C)NC(=O)[C@H](CCCN)NC(=O)[C@H](Cc3ccc(OCC(=O)O)cc3)NC(=O)[C@H](Cc3ccc(-c4ccccc4)cc3)NC(=O)[C@H](Cc3ccc(OCC(=O)O)cc3)NC2=O)c1` [Compound 1781] ({CH2CO}-[Dap]Y(Carboxymethyl)D[Phe(3-Me)]Y(Carboxymethyl)[Bip]Y(Carboxymethyl)[Orn][dL][Dab][Cha]VDC-NH2; thioether N-14) the figure was 0.0142 µM.
Turning to `CC[C@H](C)[C@@H]1NC(=O)[C@H](Cc2ccc(-c3ccccc3)cc2)NC(=O)[C@H](C(C)C)NC(=O)[C@H](Cc2cccc(Cl)c2)NC(=O)[C@H](CC(=O)O)NC(=O)[C@H](Cc2ccncc2)NC(=O)[C@H](CN)NC(=O)CSC[C@@H](C(=O)N[C@@H](C)C(N)=O)NC(=O)[C@H]([C@@H](C)O)NC(=O)[C@H](C(C)C)NC(=O)[C@H](CC2CCCCC2)NC(=O)[C@H](CCN)NC(=O)[C@@H](CC(C)C)NC(=O)[C@H](CCCN)NC1=O` [Compound 1562], the IC50 turned out to be 0.0202 µM.
With `Cc1cccc(C[C@@H]2NC(=O)[C@H](CC(=O)O)NC(=O)[C@H](Cc3ccc(OCC(=O)O)cc3)NC(=O)[C@H](C(C)O)NC(=O)CSC[C@@H](C(=O)N[C@@H](CCN)C(N)=O)NC(=O)[C@H](CO)NC(=O)[C@H](C(C)(C)O)NC(=O)[C@H](CC3CCCCC3)NC(=O)[C@H](CCN)NC(=O)[C@@H](CC(C)C)NC(=O)[C@H](CCCN)NC(=O)[C@H](Cc3ccc(OCC(=O)O)cc3)NC(=O)[C@H](Cc3ccc(-c4ccccc4)cc3)NC(=O)[C@H](Cc3ccc(C(=O)O)cc3)NC2=O)c1` (stereo partly drawn) [Compound 2634] ({CH2CO}-[Thr(3ξ)]Y(Carboxymethyl)D[Phe(3-Me)][Phe(4-COOH)][Bip]Y(Carboxymethyl)[Orn][dL][Dab][Cha][Val(3-OH)]SC[Dab]-NH2; thioether N-14) the figure was 0.0047 µM.
For the compound `CC(C)C[C@H]1NC(=O)[C@H](CCCN)NC(=O)[C@H](CCCNC(N)=O)NC(=O)[C@H](Cc2ccc(-c3ccccc3)cc2)NC(=O)[C@H](C(C)C)NC(=O)[C@H](Cc2c[nH]c3ccccc23)NC(=O)[C@H](CC(=O)O)NC(=O)[C@H](Cc2ccc(OCC(=O)O)cc2)NC(=O)[C@H](CN)NC(=O)CSC[C@@H](C(=O)N[C@@H](C)C(N)=O)NC(=O)[C@H]([C@@H](C)O)NC(=O)[C@H](C(C)C)NC(=O)[C@H](CC2CCCCC2)NC(=O)[C@H](Cc2c[nH]cn2)NC1=O` [Compound 1590] ({CH2CO}-[Dap]Y(Carboxymethyl)DWV[Bip][Cit][Orn][dL]H[Cha]VTCA-NH2; thioether N-14), the IC50 was determined as 0.009 µM.
As for `Cc1cccc(C[C@@H]2NC(=O)[C@H](CC(=O)O)NC(=O)[C@H](Cc3ccc(OCC(=O)O)cc3)NC(=O)[C@H](CN)NC(=O)CSC[C@@H](C(=O)N[C@@H](C)C(N)=O)NC(=O)[C@H]([C@@H](C)O)NC(=O)[C@H](C(C)C)NC(=O)[C@H](CC3CCCCC3)NC(=O)[C@H](CCN)NC(=O)[C@@H](CC(C)C)NC(=O)[C@H](CCCN)NC(=O)[C@H](CCC(=O)O)NC(=O)[C@H](Cc3ccc(-c4ccccc4)cc3)NC(=O)[C@H](C(C)C)NC2=O)c1` [Compound 1302], the IC50 came to 0.0061 µM.
Regarding `Cc1cccc(C[C@@H]2NC(=O)[C@H](CC(=O)O)NC(=O)[C@H](Cc3ccc(OCC(=O)O)cc3)NC(=O)[C@H](Cc3ccc(OCC(=O)O)cc3)NC(=O)CSC[C@@H](C(=O)NCC(N)=O)NC(=O)[C@H](CO)NC(=O)[C@H](C(C)C)NC(=O)[C@H](CC3CCCCC3)NC(=O)[C@H](CCN)NC(=O)[C@@H](CC(C)C)NC(=O)[C@H](CCCN)NC(=O)[C@H](C(C)C)NC(=O)[C@H](Cc3ccc(-c4ccccc4)cc3)NC(=O)[C@H](CC(C)C)NC2=O)c1` [Compound 1650] ({CH2CO}-Y(Carboxymethyl)Y(Carboxymethyl)D[Phe(3-Me)]L[Bip]V[Orn][dL][Dab][Cha]VSCG-NH2; thioether N-14), the IC50 is 0.0242 µM.
Consider `CC[C@H](C)[C@@H]1NC(=O)[C@H](Cc2ccc(-c3ccccc3)cc2)NC(=O)[C@H](C(C)C)NC(=O)[C@H](Cc2c[nH]c3ccccc23)NC(=O)[C@H](CC(=O)O)NC(=O)[C@H](Cc2ccc(OCC(=O)O)cc2)NC(=O)[C@H](Cc2ccc(OCC(=O)O)cc2)NC(=O)CSC[C@@H](C(=O)N[C@@H](C)C(N)=O)NC(=O)[C@H]([C@@H](C)O)NC(=O)[C@H](C(C)C)NC(=O)[C@H](Cc2ccc(O)cc2)NC(=O)[C@H](CCN)NC(=O)[C@@H](CC(C)C)NC(=O)[C@H](CCCN)NC1=O` [Compound 1680] ({CH2CO}-Y(Carboxymethyl)Y(Carboxymethyl)DWV[Bip]I[Orn][dL][Dab]YVTCA-NH2; thioether N-14), for which the IC50 was determined as 0.0717 µM.

A word on the IC50: it is the concentration needed to halve the response being measured.
